Results published in patent US7767666B2, “Butyl and butynyl benzyl amine compounds” (Janssen Pharmaceutica NV, priority 2006, dated 2010).

How the values were obtained:
human H3 receptor = target: T1, human H3 receptor (Homo sapiens, UniProt Q9Y5N1); experiment: H3 receptor binding; details: cloned human H3 receptor stably expressed in SK-N-MC cells
T1 construct: expressed in transfected cells

Rat SERT = target: T2, Rat SERT (Rattus norvegicus, UniProt P31652); experiment: Rat brain SERT [3H]-citalopram binding; details: rat brain membranes, 0.6 nM [3H]-Citalopram, 60 min at 25° C.
T2 construct: A rat brain without cerebellum (Zivic Laboratories, Inc.—Pittsburgh, Pa.) was homogenized; tissue Zivic Laboratories, Inc; host or cells: rat brain without cerebellum, membrane preparation
Description: The supernatant was removed and re-centrifuged at 15,000 rpm for 30 min. […] Membranes were incubated with 0.6 nM [^3H]-Citalopram plus/minus test compounds for 60 min at 25° C. and harvested by rapid filtration over GF/C glass fiber filters (pretreated with 0.3% polyethylenimine) followed by four washes with ice-cold buffer.

human SERT = target: T3, human SERT (Homo sapiens, UniProt P31645); experiment: Human SERT 3H-citalopram binding; details: HEK293 membranes expressing the human SERT, rt 1 h
T3 construct: expressed in transfected cells; host or cells: HEK293 membranes
Description: Homogenized HEK293 (Human Embryonic Kidney) membranes expressing the human SERT were incubated with ^3H-citalopram (SERT) at rt for 1 h in 50 mM Tris, 120 mM NaCl, 5 mM KCl (pH 7.4). […] The membranes were washed and the radioactivity was counted as above.

T1 sequence (Q9Y5N1 whole entry): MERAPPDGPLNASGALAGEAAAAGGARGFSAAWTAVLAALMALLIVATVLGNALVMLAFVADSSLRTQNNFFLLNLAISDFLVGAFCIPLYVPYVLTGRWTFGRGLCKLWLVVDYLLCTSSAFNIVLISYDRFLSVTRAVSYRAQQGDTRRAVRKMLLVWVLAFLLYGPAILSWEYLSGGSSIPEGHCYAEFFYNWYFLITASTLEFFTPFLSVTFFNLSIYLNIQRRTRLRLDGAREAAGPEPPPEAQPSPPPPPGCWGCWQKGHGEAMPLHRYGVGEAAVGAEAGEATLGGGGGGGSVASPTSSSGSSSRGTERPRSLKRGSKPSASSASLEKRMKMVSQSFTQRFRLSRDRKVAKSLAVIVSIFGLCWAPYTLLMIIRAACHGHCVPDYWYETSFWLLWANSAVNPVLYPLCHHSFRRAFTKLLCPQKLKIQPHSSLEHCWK
T2 sequence (P31652 whole entry): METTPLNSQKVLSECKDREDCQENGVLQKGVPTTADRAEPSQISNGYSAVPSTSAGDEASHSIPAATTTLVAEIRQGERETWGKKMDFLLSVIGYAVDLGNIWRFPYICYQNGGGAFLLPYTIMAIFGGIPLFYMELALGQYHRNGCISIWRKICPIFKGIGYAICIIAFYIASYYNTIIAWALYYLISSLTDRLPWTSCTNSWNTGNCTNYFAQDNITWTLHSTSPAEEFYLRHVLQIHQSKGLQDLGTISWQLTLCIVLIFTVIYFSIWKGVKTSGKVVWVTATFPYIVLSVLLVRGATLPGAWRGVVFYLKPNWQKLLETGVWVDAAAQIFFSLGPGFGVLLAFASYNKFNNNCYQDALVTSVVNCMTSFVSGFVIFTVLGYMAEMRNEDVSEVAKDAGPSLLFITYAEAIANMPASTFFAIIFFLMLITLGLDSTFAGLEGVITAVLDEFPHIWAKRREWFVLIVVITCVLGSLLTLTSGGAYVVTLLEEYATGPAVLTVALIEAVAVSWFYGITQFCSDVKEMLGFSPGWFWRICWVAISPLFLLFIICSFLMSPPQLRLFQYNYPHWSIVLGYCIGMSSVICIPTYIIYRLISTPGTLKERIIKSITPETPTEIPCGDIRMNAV
T3 sequence (P31645 whole entry): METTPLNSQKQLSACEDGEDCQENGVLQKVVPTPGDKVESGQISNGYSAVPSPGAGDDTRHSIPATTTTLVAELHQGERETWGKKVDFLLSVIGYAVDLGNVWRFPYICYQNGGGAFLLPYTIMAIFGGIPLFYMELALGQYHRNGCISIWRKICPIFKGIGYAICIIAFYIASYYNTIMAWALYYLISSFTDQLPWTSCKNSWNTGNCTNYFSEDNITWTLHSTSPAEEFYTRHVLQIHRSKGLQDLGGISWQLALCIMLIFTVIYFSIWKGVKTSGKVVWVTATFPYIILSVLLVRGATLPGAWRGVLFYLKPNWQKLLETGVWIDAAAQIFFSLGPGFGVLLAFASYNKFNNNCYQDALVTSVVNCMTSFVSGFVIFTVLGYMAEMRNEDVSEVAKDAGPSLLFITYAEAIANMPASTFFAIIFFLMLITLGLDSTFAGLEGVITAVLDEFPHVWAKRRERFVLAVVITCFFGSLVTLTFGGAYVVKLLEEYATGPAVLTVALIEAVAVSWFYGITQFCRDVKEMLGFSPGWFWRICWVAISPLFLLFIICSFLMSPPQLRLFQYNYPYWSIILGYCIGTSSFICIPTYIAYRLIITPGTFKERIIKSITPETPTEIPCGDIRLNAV

| SMILES | Ki (human H3 receptor) [nM] | Ki (Rat SERT) [nM] | Ki (human SERT) [nM] |
| --- | --- | --- | --- |
| CNCc1cc(CCCCN2CCN(C(C)C)CC2)ccc1Oc1ccc(SC)cc1 [Example 33, [5-[4-(4-Isopropyl-piperazin-1-yl)-butyl]-2-(4-methylsulfanyl-phenoxy)-benzyl]-methyl-amine] | 5.2 | 0.4 | 1.4 |
| CNCc1cc(CCCCN2CCN(C3CC3)CC2)ccc1Oc1ccc(SC)cc1 [Example 32, [5-[4-(4-Cyclopropyl-piperazin-1-yl)-butyl]-2-(4-methylsulfanyl-phenoxy)-benzyl]-methyl-amine] | 4.7 | 0.6 | 2 |
| CNCc1cc(C#CCCN2CCSCC2)ccc1Oc1ccc(SC)cc1 [Example 9, Methyl-[2-(4-methylsulfanyl-phenoxy)-5-(4-thiomorpholin-4-yl-but-1-ynyl)-benzyl]-amine] | 5.4 | 0.9 | 2.5 |
| CNCc1ccc(C#CCCN2CCOCC2)cc1Oc1ccc(SC)cc1 [Example 37, Methyl-[2-(4-methylsulfanyl-phenoxy)-4-(4-morpholin-4-yl-but-1-ynyl)-benzyl]-amine] | 423 | 1.8 | 3.4 |
| CNCc1cc(C#CCCN(C2CC2)C2CC2)ccc1Oc1ccc(Cl)c(Cl)c1 [Example 17, N,N-Dicyclopropyl-{4-[4-(3,4-dichloro-phenoxy)-3-methylaminomethyl-phenyl]-but-3-ynyl}-amine] | 100 | 40 |  |
| CNCc1cc(C#CCCN2CCNC(=O)C2)ccc1Oc1ccc(SC)cc1 [Example 19, 4-{4-[3-Methylaminomethyl-4-(4-methylsulfanyl-phenoxy)-phenyl]-but-3-ynyl}-piperazin-2-one] | 864 | 0.4 | 1.6 |
| CSc1ccc(Oc2ccc(C#CCCN3CCCCC3)cc2CN(C)C(=O)OC(C)(C)C)cc1 [Example 35, Methyl-[2-(4-methylsulfanyl-phenoxy)-5-(4-piperidin-1-yl-but-1-ynyl)-benzyl]-carbamic acid tert-butyl ester] | 46 | 24 |  |
| CNCc1cc(C#CCCN2CCOCC2)ccc1Oc1ccccc1 [Example 6, Methyl-[5-(4-morpholin-4-yl-but-1-ynyl)-2-phenoxy-benzyl]-amine] |  | 11 | 30 |
| CNCc1cc(C#CCCN2CCOCC2)ccc1Sc1cc(C(F)(F)F)ccn1 [Example 36, Methyl-[5-(4-morpholin-4-yl-but-1-ynyl)-2-(4-trifluoromethyl-pyridin-2-ylsulfanyl)-benzyl]-amine] | 190 | 32 |  |

More lines, main results first:

| Ki (human H3 receptor) [nM] | Ki (Rat SERT) [nM] | SMILES | Ki (human SERT) [nM] |
| --- | --- | --- | --- |
| 10 | 5 | Clc1ccc(Oc2ccc(C#CCCN3CCOCC3)cc2CNC2CC2)cc1 [Example 22, [2-(4-Chloro-phenoxy)-5-(4-morpholin-4-yl-but-1-ynyl)-benzyl]-cyclopropyl-amine] |  |
| 52 | 2 | CNCc1cc(C#CCCN2CCN(C3CC3)CC2)ccc1Oc1ccc(SC)cc1 [Example 13, [5-[4-(4-Cyclopropyl-piperazin-1-yl)-but-1-ynyl]-2-(4-methylsulfanyl-phenoxy)-benzyl]-methyl-amine] | 3.5 |
| 11 | 2.4 | CNCc1cc(C#CCCN2CCOCC2)ccc1Oc1ccc(Cl)c(Cl)c1 [Example 1, [2-(3,4-Dichloro-phenoxy)-5-(4-morpholin-4-yl-but-1-ynyl)-benzyl]-methyl-amine] | 1.8 |
| 2 | 7 | CNCc1cc(C#CCCN2CCOCC2)ccc1Oc1cccnc1 [Example 21, Methyl-[5-(4-morpholin-4-yl-but-1-ynyl)-2-(pyridine-3-yloxy)-benzyl]-amine] |  |
| 32 | 1 | CNCc1cc(C#CCCN2CCOCC2)ccc1Sc1ccc(Cl)cc1 [Example 31, [2-(4-Chloro-phenylsulfanyl)-5-(4-morpholin-4-yl-but-1-ynyl)-benzyl]-methyl-amine] |  |
